Experimental data published in paper PMC8480782, “Efficient Dimerization Disruption of Leishmania infantum Trypanothione Reductase by Triazole-phenyl-thiazoles” (Journal of Medicinal Chemistry, 2021).
Where two headings read alike, the source gives them in different places. Non-standard residues stand in square brackets, D forms with d. Residues, ends and D or L forms follow the SMILES beside them. Nle = CCCC[C@H](N)C(=O)O

Columns and labels:
LiTryR = molecular target: T1, LiTryR (Leishmania infantum, UniProt A4HSF7); test: biochemical; type: biochemical; conditions: LiTryR; 1 μM TS2; maximum assayed 75 μM; read-out: IC50^act, TryR oxidoreductase activity
T1 construct: HIS (N); made in house; host or cells: E. coli BL21 (DE3) Rossetta
T1 sequence (A4HSF7 1-491): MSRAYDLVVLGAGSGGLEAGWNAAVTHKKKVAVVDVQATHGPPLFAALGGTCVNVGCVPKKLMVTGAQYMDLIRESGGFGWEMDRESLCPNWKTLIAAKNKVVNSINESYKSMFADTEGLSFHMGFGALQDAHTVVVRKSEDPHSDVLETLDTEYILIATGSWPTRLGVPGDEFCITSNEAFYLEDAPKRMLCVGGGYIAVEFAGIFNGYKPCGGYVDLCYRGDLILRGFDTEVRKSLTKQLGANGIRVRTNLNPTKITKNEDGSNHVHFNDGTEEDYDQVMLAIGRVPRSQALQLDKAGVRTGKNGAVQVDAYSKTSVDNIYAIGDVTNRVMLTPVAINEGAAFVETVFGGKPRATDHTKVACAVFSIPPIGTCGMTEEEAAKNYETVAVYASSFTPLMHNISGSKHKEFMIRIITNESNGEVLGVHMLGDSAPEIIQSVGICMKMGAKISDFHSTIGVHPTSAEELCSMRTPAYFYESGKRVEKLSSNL
Protocol: A concentration of 1 μM TS2 was used for this initial screening. This low substrate concentration is sufficient for comparison of compound inhibitory activity in the oxidoreductase assay.
Recombinant L. infantum TryR (LiTryR) HIS-tagged and HIS-FLAG-tagged versions were used for all LiTryR oxidoreductase activity and dimer quantitation assays. These LiTryR versions were purified from Escherichia coli as previously described.[25] Briefly, pRSETA-HIS-LiTryR construct alone or in combination with the pET24a-FLAG-LiTryR construct was transformed into BL21 (DE3) Rossetta E. coli strain. An overnight E. coli culture grown at 37 °C in Luria–Bertani (LB) medium with the appropriate antibiotics and vigorous shaking was diluted (1:100) in the same medium and allowed to grow in the same conditions until the OD600 was 0.5. Then, LiTryR expression was induced by addition of 1 mM isopropyl-β-D-1-thiogalactopyranoside (IPTG) for 16 h at 26 °C. The cells were centrifuged for 5 min at 9000g and 4 °C and the wet pellet resuspended in lysis buffer (50 mM Tris, pH 7, 300 mM NaCl, 25 mM imidazole, protease inhibitor cocktail, and 1 mg/mL lysozyme). […] The supernatant was sonicated again as previously described for 10 min and loaded on a HisTrap column (GE Healthcare, Chicago, IL) for 16 h at 4 °C using a P-1 peristaltic pump (GE Healthcare, Chicago, IL). Once loaded, the HisTrap column was connected to an ÄKTA purifier UPC 10 (GE Healthcare, Chicago, IL) and washed using a 5–10% gradient between buffer A (50 mM Tris, pH 7 and 300 mM NaCl) and B (50 mM Tris, pH 7, 300 mM NaCl, and 500 mM imidazole). LiTryR was eluted using a 40% gradient between buffers A and B. Fractions containing recombinant LiTryR were pooled and loaded into a HiPrep 26/10 Desalting column (GE Healthcare, Chicago, IL) previously equilibrated with buffer A. Finally, LiTryR was concentrated to 2 mg/mL using an Amicon Ultra-15 50K (Merck Millipore, Burlington, MA) and an equal volume of glycerol was added before storing at −20 °C.
TryR oxidoreductase activity was determined spectrophotometrically using a modified version of the DTNB-coupled assay described by Hamilton et al.[52] Briefly, reactions were carried out at 26 °C in 250 μL of N-(2-hydroxyethyl)piperazine-N′-ethanesulfonic acid (HEPES) buffer (pH 7.5, 40 mM) containing ethylenediaminetetraacetic acid (EDTA) (1 mM), NADP^+ (30 μM), DTNB (25 μM), TS2 (1 μM), NADPH (150 μM), glycerol (0.02%), DMSO (1.75%), and recombinant TryR (7 nM). […] Reactions were started by addition of a mixture of NADPH and TS2.
TryR oxidoreductase activity was monitored at 26 °C by an increase in absorbance at 412 nm in an EnSpire Multimode Plate Reader (PerkinElmer, Waltham, MA). […] (TNB) concentration was obtained by multiplying the absorbance values by 100 (50 μM TNB generates 0.5 arbitrary units of absorbance at 412 nm). In this DTNB-coupled assay, one molecule of T(SH)2 reduces one molecule of DTNB, producing two TNB molecules. All of the assays were conducted in at least three independent experiments. Data were analyzed using a nonlinear regression model with GraFit 6 software (Erithacus, Horley, Surrey, U.K.).

LiTryR dimer = molecular target: T2, LiTryR dimer (Leishmania infantum, UniProt A4HSF7); test: biochemical; conditions: 400 nM LiTryR, 16 h at 37 °C; read-out: IC50^dim, LiTryR monomer displacement (dimer quantitation ELISA)
T2 construct: made in house; host or cells: E. coli BL21 (DE3) Rossetta (co-transformed with both plasmids)
T2 sequence (A4HSF7 1-491): as above
Protocol: The stability of the LiTryR dimeric form in the presence of 1,2,3-triazole-phenyl-thiazole-based compounds was evaluated using the novel enzyme-linked immunosorbent assay (ELISA) developed in our laboratory.[25] […] Next, the different solutions were centrifuged at 18 000g for 15 min at room temperature. The supernatants (200 μL/well) were added to the α-FLAG-coated plates (Sigma-Aldrich, St. Louis, MO) and incubated for 30 min at 37 °C with agitation in a humid atmosphere. The plates were washed five times with TTBS buffer (2 mM Tris, pH 7.6, 138 mM NaCl, and 0.1% Tween-20) and incubated with diluted monoclonal α-HIS horseradish peroxidase (HRP)-conjugated antibody (200 μL, 1:50 000, Abcam, Cambridge, U.K.) in fatty acid- and essentially globulin-free bovine serum albumin (BSA) (5%) prepared in TTBS buffer for 1 h at room temperature. The plates were washed five times, and o-phenylenediamine dihydrochloride (OPD) substrate prepared according to the manufacturer’s instructions was added. The enzymatic reaction was stopped after 5 min with H2SO4 (100 μL, […]), and the absorbances were measured at 490 nm in an EnSpire Multimode Plate Reader (PerkinElmer, Waltham, MA). All of the assays were conducted in triplicate in at least three independent experiments. Data were analyzed using a nonlinear regression model with GraFit 6 software (Erithacus, Horley, Surrey, U.K.).

[1] = system: L. infantum promastigotes; test: Leishmanicidal activity on promastigotes (PI exclusion, flow cytometry); type: cell-based, Leishmania infantum; conditions: for SIp (ratio of EC50 against human cells to EC50 against promastigotes): HepG2 / promastigotes; for EC50: Leishmania infantum
Protocol: (§1) L. infantum promastigotes (MCAN/ES/89/IPZ229/1/89) were grown in Roswell Park Memorial Institute (RPMI)-1640 medium (Sigma-Aldrich, St. Louis, MO) supplemented with 10% heat-inactivated fetal calf serum (FCS), antibiotics, and 25 mM HEPES (pH 7.2) at 26 °C. L. infantum axenic amastigotes (MCAN/ES/89/IPZ229/1/89) were grown in M199 medium (Invitrogen, Leiden, The Netherlands) supplemented with 10% heat-inactivated FCS, 1 g/L β-alanine, 100 mg/L L-asparagine, 200 mg/L sucrose, 50 mg/L sodium pyruvate, 320 mg/L malic acid, 40 mg/L fumaric acid, 70 mg/L succinic acid, 200 mg/L α-ketoglutaric acid, 300 mg/L citric acid, 1.1 g/L sodium bicarbonate, 5 g/L morpholineethanesulfonic acid (MES), 0.4 mg/L hemin, and 10 mg/L gentamicine, pH 5.4, at 37 °C.
(§2) Drug treatment of L. infantum promastigotes was performed during the logarithmic growth phase at a concentration of 2 × 10^6 parasites/mL at 26 °C for 24 h. […] EC50 was evaluated by flow cytometry by the propidium iodide (PI) exclusion method. After selection of the parasite population based on their forward scatter (FSC) and side scatter (SSC) values, live and dead parasite cells were identified by their permeability to PI. All of the assays were conducted in triplicate in at least three independent experiments. Data were analyzed using a nonlinear regression model with GraFit 6 software (Erithacus, Horley, Surrey, U.K.).

[2] = system: L. infantum axenic amastigotes; test: Leishmanicidal activity on axenic amastigotes (PI exclusion, flow cytometry); type: cell-based, Leishmania infantum; conditions: for SIa (ratio of EC50 against human cells to EC50 against amastigotes): HepG2 / axenic amastigotes; for EC50: Leishmania infantum, axenic amastigotes, 24 h at 37 °C, read-out: EC50 amastigotes
Protocol: as §1
Axenization was performed by diluting 0.5 mL of a 7-day stationary phase culture of L. infantum promastigotes (2–3 × 10^7 parasites/mL) in 4.5 mL of amastigotes medium and incubating the culture at 37 °C for 2 or 3 days. L. infantum axenic amastigotes apparition was followed by phase-contrast microscopy using an Eclipse Ti inverted microscope (Nikon, Tokyo, Japan).
as §2

HepG2 cells = test: Cellular toxicity, crystal violet assay; type: cell-based; conditions: Homo sapiens, HepG2; 24 h, crystal violet method; read-out: EC50 HepG2
Protocol: Liver hepatocellular carcinoma HepG2 cells were grown in Dulbecco’s modified Eagle’s medium (DMEM) (Sigma-Aldrich, St. Louis, MO) with 10% heat-inactivated FCS, antibiotics, and 10 mM HEPES.
Drug treatment of liver hepatocellular carcinoma HepG2 cells was performed at a concentration of 10^5 cells/mL at 37 °C and 5% CO2 for 24 h. EC50 was evaluated by the crystal violet assay. Briefly, cells were washed with phosphate-buffered saline (PBS) and stained with 200 μL of crystal violet solution (0.2% crystal violet, 2% ethanol) for 10 min at room temperature. Next, the plates were washed twice with tap water and allowed to dry. The stained cells were solubilized with 400 μL of 1% sodium dodecyl sulfate (SDS), and the color intensity was quantified at 570 nm using an EnSpire Multimode Plate Reader (PerkinElmer, Waltham, MA). All of the assays were conducted in triplicate in at least three independent experiments. Data were analyzed using a nonlinear regression model with GraFit 6 software (Erithacus, Horley, Surrey, U.K.).

[3] = 24 h at 26 °C, read-out: EC50 promastigotes
[4] = promastigotes or amastigotes (either form), read-out: EC50 against Leishmania promastigotes or amastigotes

SMILES | IC50 (LiTryR) [µM] | IC50 (LiTryR dimer) [µM] | SIp (ratio of EC50 against human cells to EC50 against promastigotes) [1] | EC50 [1, 3] [µM] | SIa (ratio of EC50 against human cells to EC50 against amastigotes) [2] | EC50 [2] [µM] | EC50 (HepG2 cells) [µM] | EC50 [1, 4] [µM]
NCCCc1cn(-c2ccc(-c3nc(CCc4ccccc4)cs3)c(OCCN3CCNC3=O)c2)nn1.O=C(O)C(F)(F)F [12h] | 20.8 ± 2.3 | > 75 | 2.0 | 12.7 ± 0.3 | < 1 | 31.6 ± 5.8 | 25.7 ± 2.2 | 
CCCCc1cn(-c2ccc(-c3nc(CCc4ccc(-c5ccccc5)cc4)cs3)c(OCCN3CCNC3=O)c2)nn1 [12f] | > 75 | > 75 |  |  |  |  |  | 
O=C1NCCN1CCOc1cc(Br)ccc1-c1nc(CCc2ccccc2)cs1 [compound 13] | > 75 | > 75 |  |  |  |  |  | 
NCCCCc1cn(-c2ccc(-c3nc(Cc4ccccc4)cs3)c(OCCN3CCNC3=O)c2)nn1 [12o] |  |  |  | > 75 |  | > 75 | 67.9 ± 1.5 | 
N#Cc1ccc(-n2cc(CCCCN)nn2)cc1OCCN1CCNC1=O [compound 14] | > 75 | > 75 |  |  |  |  |  | 
NCCCCc1cn(-c2ccc(-c3nc(-c4ccc(-c5ccccc5)cc4)c(-c4ccccc4)s3)c(OCCN3CCNC3=O)c2)nn1.O=C(O)C(F)(F)F [19b, 1-(2-(5-(4-(4-Ammoniobutyl)-1H-1,2,3-triazol-1-yl)-2-(4-([1,1′-biphenyl]-4-yl)-5-phenylthiazol-2-yl)phenoxy)ethyl)imidazolidin-2-one 2,2,2-Trifluoroacetate] | 18.4 ± 3.9 | 11.3 ± 0.2 |  |  | ND/1.8 | 9.4 ± 0.5 | 17.3 ± 0.1 | < 10
O=C1NCCN1CCOc1cc(-n2cc(CCCCO)nn2)ccc1-c1nc(CCc2ccccc2)cs1 [12d] | > 75 | > 75 |  |  |  |  |  | 
CCCC[C@H](NC(=O)[C@H](CCCCN)NC(=O)[C@H](CCCC)NC(=O)[C@H](CO)NC(=O)[C@@H](NC(=O)CNC(=O)[C@@H](NC(=O)[C@H](CO)NC(=O)[C@H](CCC(N)=O)NC(=O)[C@@H](NC(=O)[C@@H](NC(=O)[C@H](CCCCN)NC(=O)[C@@H]1CCCN1C(=O)[C@H](CCCNC(=N)N)NC(=O)[C@H](CCCNC(=N)N)NC(=O)[C@H](CCCNC(=N)N)NC(=O)[C@H](CCCNC(=N)N)NC(=O)[C@H](CCCNC(=N)N)NC(=O)[C@H](CCCNC(=N)N)NC(=O)[C@H](CCCNC(=N)N)NC(=O)[C@H](CCCNC(=N)N)NC(=O)[C@H](CCCNC(=N)N)NC(C)=O)[C@@H](C)CC)[C@@H](C)CC)C(C)C)[C@@H](C)CC)C(N)=O [R9-peptide 1, reference compound] (Ac-RRRRRRRRRPKIIQSVGIS[Nle]K[Nle]-NH2; N-terminus and C-terminus assumed) |  |  | 19.9 |  | 18.1 |  |  | 
CC(C)(C)Cc1csc(-c2ccc(-n3cc(CCCCN)nn3)cc2OCCN2CCNC2=O)n1.O=C(O)C(F)(F)F [12m] | 24.1 ± 1.4 | > 75 | 1.0 | 42.6 ± 3.9 | 1.8 | 25.2 ± 0.5 | 44.9 ± 1.3 | 
NCCCCc1cn(-c2ccc(-c3nc(CCc4ccc(-c5ccccc5)cc4)c(-c4ccccc4)s3)c(OCCN3CCNC3=O)c2)nn1.O=C(O)C(F)(F)F [19d, 1-(2-(2-(4-(2-([1,1′-Biphenyl]-4-yl)ethyl)-5-phenyl-thiazol-2-yl)-5-(4-(4-ammoniobutyl)-1H-1,2,3-triazol-1-yl)phenoxy)ethyl)imidazolidin-2-one 2,2,2-Trifluoroacetate] | 19.8 ± 2.3 | 5.7 ± 0.5 |  |  | ND/1.3 | 9.1 ± 0.2 | 12.1 ± 0.1 | < 10
COc1cc(-n2cc(CCCCN)nn2)ccc1-c1nc(CCc2ccc(-c3ccccc3)cc2)cs1.O=C(O)C(F)(F)F [12k] | 26.8 ± 5.7 | 16.1 ± 0.7 |  |  | ND/1.9 | 4 ± 0.2 | 7.4 ± 0.6 | 
CC(C)Oc1csc(-c2ccc(-n3cc(CCCCN)nn3)cc2OCCN2CCNC2=O)n1 [12l] | 54.5 ± 4.4 | > 75 |  |  |  |  |  | 
CCCCc1cn(-c2ccc(-c3nc(CCc4ccccc4)cs3)c(OCCN3CCNC3=O)c2)nn1 [12e] | > 75 | > 75 |  |  |  |  |  | 
